{
  "source": "patent US8188050B2",
  "about": "“Pharmaceutical and/or cosmetic composition containing peptides” (ISP Investments Inc., priority 2006, dated 2012)",
  "system": "Biopsies of human skin",
  "experiment": "Ex vivo study of the effect of the peptide on the synthesis of melanin (Fontana-Masson staining of skin biopsies)",
  "format": "cell-based",
  "details": "two applications daily, peptide 1% starting with a 50-ppm solution, 48 hours",
  "experimental": "The aim of this ex vivo study is to highlight the increase in melanization produced by the peptides according to the invention.\nProtocol: Biopsies of human skin 6 mm in diameter are held in an ex vivo culture in the presence of a specific medium (1 g/L DMEM, Ham's F-12, SVF, and antibiotics) on inserts deposited on 6-well plates. […] The duration of the treatment is 48 hours. The biopsies are subsequently fixed in 9% formaldehyde and NaCl (150 mM) for 10 hours and then enclosed in paraffin. Thin-sections of the skin 3 μm thick are then made, and the melanin is specifically stained by the Fontana-Masson technique.",
  "note": "Entries after “also recorded” stand apart in the source; their conditions may differ.",
  "data": [
    {"substance": "Thr-Leu-Leu-Ala (TLLA) [SEQ ID No. 3, peptide fragment of the protein SLC24A5]", "values": [
      {"measurement": "Location/distribution of melanin in the epidermis", "value": "located in the basal layer but is also transported into the supra-basal layers; also recorded: stimulates the entire process of melanin distribution in the epidermis"},
      {"measurement": "Synthesis of melanin by the melanocytes (conclusion)", "value": "strong increase in the synthesis of melanin"},
      {"measurement": "Intensity of melanin coloration of skin thin-sections (Fontana-Masson staining)", "setting": "vs. untreated sections", "value": "coloration of clearly increased intensity"}
    ]}
  ]
}
